Test system: plaque
Details: in vivo

CC(=O)[O-].CC(=O)[O-].[Zn+2] [zinc acetate]
effect on plaque in hard-to-reach places: with high efficiency
